Earlier results as cited in patent US4474765A, “Biologically active peptides” (Farmitalia Carlo Erba S.p.A., priority 1982, dated 1984).

Tested on: release of ACTH, β-endorphin, growth hormone, TSH and prolactin
Conditions: literature, Montecucchi et al. 1979

## CC[C@H](C)[C@H](NC(=O)[C@@H](NC(=O)[C@H](CC(=O)O)NC(=O)[C@H](CC(C)C)NC(=O)[C@H](CC(C)C)NC(=O)[C@H](CC(C)C)NC(=O)[C@H](CCCNC(=N)N)NC(=O)[C@H](CC(N)=O)NC(=O)[C@H](CC(N)=O)NC(=O)[C@H](C)NC(=O)[C@H](C)NC(=O)[C@H](CCC(N)=O)NC(=O)[C@H](CCC(N)=O)NC(=O)[C@H](CCCCN)NC(=O)[C@H](CCC(=O)O)NC(=O)[C@H](CCCCN)NC(=O)[C@H](CCC(=O)O)NC(=O)[C@H](CCC(N)=O)NC(=O)[C@H](CCCCN)NC(=O)[C@H](CCC(=O)O)NC(=O)[C@@H](NC(=O)[C@H](CCC(=O)O)NC(=O)[C@@H](NC(=O)[C@H](CCSC)NC(=O)[C@H](CCCCN)NC(=O)[C@H](CCCNC(=N)N)NC(=O)[C@H](CC(C)C)NC(=O)[C@H](CC(C)C)NC(=O)[C@H](CCC(=O)O)NC(=O)[C@H](CC(C)C)NC(=O)[C@H](CO)NC(=O)[C@H](CC(C)C)NC(=O)[C@H](CC(=O)O)NC(=O)[C@@H](NC(=O)[C@H](CO)NC(=O)[C@@H](NC(=O)[C@@H]1CCCN1C(=O)[C@@H]1CCCN1C(=O)CNC(=O)[C@@H]1CCC(=O)N1)[C@@H](C)CC)[C@@H](C)CC)[C@@H](C)CC)[C@@H](C)CC)[C@@H](C)O)C(N)=O [sauvagine]
  pharmacological activities (hormone release): release of ACTH and β-endorphin, and inhibition of the release of growth hormone, TSH and prolactin
